Test results taken from the NIST ThermoML archive (doi:10.1016/j.jct.2019.03.039).
± gives the expanded uncertainty stated by the source.

Assay: mn = molality of the nth substance listed, in mol/kg
Details: 101.3 kPa, Liquid; for viscosity: Capillary tube (Ostwald / Ubbelohde) method; for speed of sound: Frequency=4 MHz, Linear variable-path acoustic interferometer; for mass density: Vibrating tube method

N=C(N)NCCC[C@H](N)C(=O)O [L-arginine] + O
Details | mass density [kg/m3] | speed of sound [m/s] | viscosity [mPa·s]
293.15 K, m1 = 0.05014 | 1000.72 ± 0.37 | 1487.6 ± 1.7 | 1.032 ± 0.032
293.15 K, m1 = 0.1001 | 1003.17 ± 0.37 | 1492.7 ± 1.7 | 1.054 ± 0.033
293.15 K, m1 = 0.15 | 1005.58 ± 0.37 | 1497.9 ± 1.8 | 1.08 ± 0.033
293.15 K, m1 = 0.2 | 1007.92 ± 0.37 | 1503.2 ± 1.8 | 1.107 ± 0.033
293.15 K, m1 = 0.25 | 1010.21 ± 0.37 | 1508.6 ± 1.8 | 1.13 ± 0.033
293.15 K, m1 = 0.3001 | 1012.47 ± 0.37 | 1514.1 ± 1.8 | 1.155 ± 0.033
298.15 K, m1 = 0.05014 | 999.556 ± 0.37 | 1502.4 ± 1.8 | 0.9151 ± 0.032
298.15 K, m1 = 0.1001 | 1001.99 ± 0.37 | 1507.5 ± 1.8 | 0.9358 ± 0.032
298.15 K, m1 = 0.15 | 1004.36 ± 0.37 | 1512.7 ± 1.8 | 0.9586 ± 0.032
298.15 K, m1 = 0.2 | 1006.68 ± 0.37 | 1518 ± 1.8 | 0.9766 ± 0.032
298.15 K, m1 = 0.25 | 1008.94 ± 0.37 | 1523.4 ± 1.8 | 1 ± 0.032
298.15 K, m1 = 0.3001 | 1011.17 ± 0.37 | 1528.9 ± 1.8 | 1.021 ± 0.033
303.15 K, m1 = 0.05014 | 998.142 ± 0.37 | 1514.5 ± 1.8 | 0.8179 ± 0.032
303.15 K, m1 = 0.1001 | 1000.55 ± 0.37 | 1519.6 ± 1.8 | 0.8355 ± 0.032
303.15 K, m1 = 0.15 | 1002.9 ± 0.37 | 1524.8 ± 1.8 | 0.8555 ± 0.032
303.15 K, m1 = 0.2 | 1005.19 ± 0.37 | 1530.1 ± 1.8 | 0.8718 ± 0.032
303.15 K, m1 = 0.25 | 1007.45 ± 0.37 | 1535.5 ± 1.8 | 0.8909 ± 0.032
303.15 K, m1 = 0.3001 | 1009.67 ± 0.37 | 1541 ± 1.8 | 0.9084 ± 0.032
308.15 K, m1 = 0.05014 | 996.503 ± 0.37 | 1524.3 ± 1.8 | 0.7362 ± 0.032
308.15 K, m1 = 0.1001 | 998.883 ± 0.37 | 1529.4 ± 1.8 | 0.7512 ± 0.032
308.15 K, m1 = 0.15 | 1001.21 ± 0.37 | 1534.6 ± 1.8 | 0.7694 ± 0.032
308.15 K, m1 = 0.2 | 1003.48 ± 0.37 | 1539.9 ± 1.8 | 0.7828 ± 0.032
308.15 K, m1 = 0.25 | 1005.7 ± 0.37 | 1545.3 ± 1.8 | 0.7987 ± 0.032
308.15 K, m1 = 0.3001 | 1007.89 ± 0.37 | 1550.8 ± 1.8 | 0.8144 ± 0.032
313.15 K, m1 = 0.05014 | 994.671 ± 0.37 | 1533.7 ± 1.8 | 0.6673 ± 0.032
313.15 K, m1 = 0.1001 | 997.036 ± 0.37 | 1538.8 ± 1.8 | 0.6808 ± 0.032
313.15 K, m1 = 0.15 | 999.344 ± 0.37 | 1544 ± 1.8 | 0.6951 ± 0.032
313.15 K, m1 = 0.2 | 1001.6 ± 0.37 | 1549.3 ± 1.8 | 0.7067 ± 0.032
313.15 K, m1 = 0.25 | 1003.8 ± 0.37 | 1554.7 ± 1.8 | 0.7224 ± 0.032
313.15 K, m1 = 0.3001 | 1005.97 ± 0.37 | 1560.3 ± 1.8 | 0.7345 ± 0.032
